Results as given in publication PMC11820736, “Design, Synthesis, and Anti-Tyrosinase, Anti-Melanogenic, and Antioxidant Activities of Novel (Z)-3-Benzyl-5-Benzylidene-2-Thioxothiazolidin-4-One Analogs” (Molecules, 2025).
Entries after “also recorded” stand apart in the source; their conditions may differ.

Assays:
[1] = DPPH radical-scavenging activity; details: 500 μM, 30 min in the dark
Description: For measuring the scavenging effect of analogs 1–12 on DPPH radicals, test samples (analogs 1–12 and ascorbic acid [positive reference standard]; final concentration: 500 μM) were mixed with a DPPH solution, and absorbance was measured at 517 nm after storing for 30 min in the dark to determine % DPPH radical-scavenging ability.
L-Ascorbic acid was used as a positive control. Test samples (analogs 1–12 and L-ascorbic acid; 5 mM, 20 μL) dissolved in DMSO were added to each well of a 96-well plate containing the DPPH methanol solution (0.2 mM, 180 μL), and the plate was placed in the dark at 20 °C for 30 min. The absorbance was recorded at 517 nm using a VE microplate reader to calculate DPPH radical-scavenging activity.

mushroom tyrosinase = mushroom tyrosinase (Agaricus bisporus, UniProt C7FF04); test: Mushroom tyrosinase inhibition assay (dopachrome, 475 nm); assay type: biochemical; details: substrate L-tyrosine
Description: The plate was placed at 37 °C for 30 min, and well absorbance was measured at 475 nm to determine the generated dopachrome amounts in each well using a VersaMax® Elisa (VE) microplate reader (Molecular Devices, San Jose, CA, USA).

B16F10 cells [2] = test: Cytotoxicity assay on B16F10 murine melanoma cells (EZ-Cytox); assay type: cell-based; details: 1, 2, 5 and 10 μM, 72 h
Description: Cell viability for analogs 1–3 was examined on B16F10 cells at 1, 2, 5, and 10 μM concentrations for 72 h.
The influence of (Z)-BBTT analogs 1–3 on B16F10 cell viability was studied using an EZ-Cytox solution (EZ-1000®, DoGenBio, Seoul, Republic of Korea). B16F10 cells were seeded at a density of 1 × 10^3 in each well of a 96-well plate, and the plate was cultivated under normal cell culture conditions for 24 h. Analogs were added to each well at concentrations of 0, 1, 2, 5, and 10 μM, and then cells were cultivated for 72 h under normal cell culture conditions. An aliquot (10 μL) of the EZ-Cytox solution was added to each well and cultivated for 2 h. Well absorbance was recorded at 450 nm using a VE microplate reader to calculate cell viability.

B16F10 cells [3] = test: Cellular melanin level measurement in B16F10 cells; assay type: cell-based, murine; details: 72 h; for effect on stimulator-induced increase in melanin contents: 2, 5 and 10 μM, concentration-dependent
Description: Stimulators comprising 1 μM α-melanocyte-stimulating hormone (α-MSH) and 200 μM 3-isobutyl-1-methylxanthine (IBMX) were administered 1 h after test sample treatment. The effects of analogs 1 and 3 on melanin production were determined by measuring the optical density at 405 nm after 72 h of treatment.
B16F10 cells were seeded at a density of 5000 per well of a 6-well plate, and the plate was cultivated under normal cell culture conditions for 24 h. […] In addition, 200 μM IBMX and 1 μM α-MSH (Alomone Labs™, Jerusalem, Israel) were added to each well and cultivated for 72 h under the normal cell culture conditions. To determine the cellular melanin levels, 1N–NaOH solution (100 μL) was added to each well and then kept at 60 °C for 1 h to lyse the cells. The cell lysates were washed twice with phosphate-buffered saline (PBS) and transferred to a 96-well plate, and the absorbance was recorded at 405 nm using a VE microplate reader to determine the cellular melanin content.

[4] = target: T1, B16F10 cellular tyrosinase (Mus musculus, UniProt P11344); test: Cellular tyrosinase activity measurement in B16F10 cells; assay type: cell-based, murine; details: α-MSH + IBMX, 72 h; for inhibition of cellular tyrosinase activity compared with kojic acid: 10 μM; for effect on stimulator-enhanced cellular tyrosinase activity: 2, 5 and 10 μM, concentration-dependent
T1 construct: endogenous in cells; host or cells: B16F10 murine melanoma cells stimulated with α-MSH and IBMX
T1 sequence (P11344 19-533): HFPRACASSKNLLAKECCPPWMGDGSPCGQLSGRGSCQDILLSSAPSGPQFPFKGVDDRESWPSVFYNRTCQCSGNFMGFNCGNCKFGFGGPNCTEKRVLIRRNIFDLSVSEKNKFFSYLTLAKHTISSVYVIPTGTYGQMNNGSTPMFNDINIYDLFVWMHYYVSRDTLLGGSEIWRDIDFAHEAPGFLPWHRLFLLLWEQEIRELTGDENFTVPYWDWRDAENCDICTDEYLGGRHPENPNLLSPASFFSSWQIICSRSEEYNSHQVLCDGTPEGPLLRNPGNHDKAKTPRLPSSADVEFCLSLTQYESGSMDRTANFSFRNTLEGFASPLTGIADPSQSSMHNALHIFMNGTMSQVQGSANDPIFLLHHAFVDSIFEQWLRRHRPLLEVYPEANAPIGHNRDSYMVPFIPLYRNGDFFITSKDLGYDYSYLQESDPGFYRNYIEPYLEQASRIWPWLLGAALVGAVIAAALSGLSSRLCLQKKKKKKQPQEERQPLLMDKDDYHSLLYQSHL
Description: The cellular tyrosinase inhibitory activity of the test samples was determined by measuring their optical density at 475 nm 72 h after test sample treatment.
B16F10 cells were seeded at a density of 5000 per well of a 6-well plate, and the plate was cultivated under normal cell culture conditions for 24 h. […] Stimulators (200 μM IBMX and 1 μM α-MSH) were added to each well and cultivated for 72 h under normal cell culture conditions. To determine cellular tyrosinase activity, the cells were washed twice with PBS, treated with lysis buffer solution (100 μL) comprising 50 mM phosphate buffer (pH 6.5) (90 μL), 2 mM phenylmethanesulfonyl fluoride (5 μL), and 20% Triton X-100 (5 μL), and incubated at −80 °C for 30 min. After centrifugation (10,000× g, 4 °C, and 10 min), the supernatants (80 μL each) were transferred to each well of a 96-well plate, then 10 mM L-DOPA (20 μL) was added to each well. The absorbance was measured at 475 nm at 1 min intervals for 10 min using a VE microplate reader to determine cellular tyrosinase activity.

B16F10 cell tyrosinase = target: T2, B16F10 cell tyrosinase (Mus musculus, UniProt P11344); test: In situ cellular tyrosinase activity in B16F10 cells (L-DOPA staining); assay type: cell-based, murine; details: for relative dark area of cells compared with kojic acid at the same concentration: 10 μM, L-DOPA staining; for number of cells strongly stained with melanin: kojic acid 10 μM, analogs 2, 5 and 10 μM, α-MSH + IBMX, 72 h
T2 construct: endogenous in cells; host or cells: B16F10 murine melanoma cells stimulated with α-MSH and IBMX
T2 sequence (P11344 19-533): T1 sequence (P11344 19-533)
Description: To identify the in situ cellular tyrosinase inhibitory activity of analogs 1 and 3, B16F10 cells and L-DOPA were used as the experimental target cells and substrate for melanin synthesis, respectively. […] B16F10 cells were photographed after 2 h of treatment with excess L-DOPA, and the darkness of the cells was measured using the CS analyzer program (ATTO, Tokyo, Japan). Analogs 1 and 3 were used at 2, 5, and 10 μM.
After 1 h, the cells were exposed to 1 μM α-MSH and 200 μM IBMX and cultivated under normal cell culture conditions for 72 h. Cultured cells were fixed using a 4% paraformaldehyde solution for 40 min, washed twice with PBS, and permeabilized using 0.1% Triton X-100 for 2 min. L-DOPA solution (2 mM; 500 μL) was added to each well after washing twice with PBS. After the plate was placed for 2 h at 37 °C, the images for cell staining were acquired using a camera attached to a microscope (Motic, Hong Kong).

HaCaT cells = test: Cytotoxicity assay on HaCaT cells (EZ-Cytox); assay type: cell-based, human; details: 2, 5, 10 and 20 μM, 72 h
Description: As keratinocytes are one of the major cells that constitute the epidermis, the effects of analogs 1–3 on HaCaT (immortalized human keratinocytes) cell viability were investigated. Analogs 1–3 were tested at concentrations of 0, 2, 5, 10, and 20 μM, and cell viability was determined 72 h after incubation.
The effect of (Z)-BBTT analogs 1–3 on HaCaT cell viability was examined using EZ-Cytox solution. HaCaT cells were seeded at a density of 1 × 10^3 in each well of a 96-well plate, and the plate was cultivated under normal cell culture conditions for 24 h. Analogs 1–3 were added to each well at concentrations of 0, 2, 5, 10, and 20 μM and then cultivated for 72 h under normal cell culture conditions. An aliquot (10 μL) of the EZ-Cytox solution was added to each well and cultivated for 2 h. Well absorbance was recorded at 450 nm using a VE microplate reader to calculate HaCaT cell viability.

[5] = ABTS cation radical scavenging activity; details: 100 μM, 2 min in the dark
Description: To measure the scavenging effects of analogs 1–12 on ABTS^+ radicals, ABTS was initially treated with potassium persulfate to yield ABTS^•+. The formed ABTS^+ radical solution was mixed with test samples (analogs 1–12 and Trolox [positive reference standard]; final concentration: 100 μM), and absorbance was measured at 732 nm after storing for 2 min in the dark to determine %ABTS^•+-scavenging ability.
ABTS^•+ was prepared by mixing equal amounts of ABTS (14 mM in H2O) and K2S2O8 (4.9 mM in H2O) and storing in the dark at 20 °C for 16 h. Prior to use, the absorbance of the prepared ABTS^•+ solution was adjusted to 0.7 ± 0.02 at 732 nm by dilution with methanol. A cosolvent (EtOH:DMSO = 10:1 [v/v]) was used to prepare solutions of the test samples (analogs 1–12 and Trolox [positive reference standard]). All test samples were used at a final concentration of 100 μM. The test sample solution (10 μL) was mixed with the adjusted ABTS^•+ solution (90 μL) in each well of a 96-well plate, and the mixture was kept in the dark at 20 °C for 2 min. The absorbance was recorded at 732 nm at 1 min intervals for 10 min using a VE microplate reader. The percentage of radical-scavenging activity was calculated using the formula % radical-scavenging activity = [(Abscontrol − Abssample)/Abscontrol] × 100, where Abssample and Abscontrol are absorbances of the sample and control, respectively.

[6] = ROS-scavenging activity (SIN-1, DCFH); details: 40 μM, SIN-1 10 μM
Description: UV-A radiation induces ROS generation substantially, and oxidative stress accelerates melanin formation in organisms. Thus, the ROS-scavenging ability of (Z)-BBTT analogs was examined to determine whether these analogs have an auxiliary ability to scavenge ROS. 3-Morpholinosydnonimine (SIN-1; 10 μM) was used as a ROS generating substance, and Trolox (40 μM) was used as a positive reference standard.
The test samples ((Z)-BBTT analogs 1–12 and Trolox [positive reference standard]) and 3-morpholinosydnonimine (SIN-1) were dissolved in DMSO and PBS, respectively. To prepare 2′,7′-dichlorodihydrofluorescein (DCFH) solution, PBS (50 mM; 4.9 mL, pH 7.4) and DCFH diacetate (2.5 mM; 0.05 mL) were mixed with esterase (15 units/10 mL; 0.05 mL). After storage for 30 min at 20 °C, the mixture was placed in the dark until further use. SIN-1 (10 µL) was added to each well of a 96-well black plate containing PBS (180 µL) and test sample (10 µL), and the plate was placed in the dark for 5 min. The prepared DCFH solution (50 µL) was added to each well of the black plate. The fluorescence of each well was recorded at 535 nm using a microplate reader (Berthold Advances GmbH & Co., Bad Wildbad, Germany) at an excitation wavelength of 485 nm. The test samples and SIN-1 were tested at final concentrations of 40 and 10 μM, respectively.

Chain of mushroom tyrosinase (C7FF04 2-392): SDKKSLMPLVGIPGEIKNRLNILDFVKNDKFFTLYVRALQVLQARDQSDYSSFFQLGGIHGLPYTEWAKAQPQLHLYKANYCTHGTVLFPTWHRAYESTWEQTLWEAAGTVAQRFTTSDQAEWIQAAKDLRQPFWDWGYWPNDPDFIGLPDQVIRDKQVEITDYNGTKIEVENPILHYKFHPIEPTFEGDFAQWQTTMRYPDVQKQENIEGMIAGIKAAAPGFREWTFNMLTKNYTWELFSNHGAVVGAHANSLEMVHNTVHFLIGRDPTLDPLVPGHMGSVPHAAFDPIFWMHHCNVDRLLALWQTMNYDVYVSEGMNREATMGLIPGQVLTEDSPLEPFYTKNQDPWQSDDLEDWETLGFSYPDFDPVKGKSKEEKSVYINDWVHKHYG

## O=C1O[C@H]([C@@H](O)CO)C(O)=C1O [Ascorbic acid, L-Ascorbic acid, reference compound]
[1]
  % DPPH radical-scavenging: 97%

## O=C1/C(=C/c2ccc(O)cc2)SC(=S)N1Cc1ccccc1 [Compound 1, (Z)-3-Benzyl-5-(4-hydroxybenzylidene)-2-thioxothiazolidin-4-one]
Mushroom tyrosinase
  inhibitory potency relative to kojic acid (IC50 ratio): four-fold lower
B16F10 cells [2]
  cytotoxicity to B16F10 cells: not cytotoxic; also recorded: no perceptible cytotoxicity
B16F10 cells [3]; 10 μM, α-MSH 1 μM + IBMX 200 μM, stimulators alone 5.0-fold increase
  stimulator-induced increased melanin content reduced by (fold): 1.9 fold
B16F10 cells [3]; α-MSH + IBMX
  effect on stimulator-induced increase in melanin contents: significantly decreased
[4]
  inhibition of cellular tyrosinase activity compared with kojic acid: more strongly than kojic acid
  effect on stimulator-enhanced cellular tyrosinase activity: significantly decreased
B16F10 cell tyrosinase
  relative dark area of cells compared with kojic acid at the same concentration: significantly less than that of kojic acid
  number of cells strongly stained with melanin: reduced the number of strongly stained cells in a concentration-dependent manner
HaCaT cells
  cytotoxicity to HaCaT cells: no perceptible cytotoxicity

## O=C1/C(=C/c2ccc(O)c(O)c2)SC(=S)N1Cc1ccccc1 [Compound 2, (Z)-3-Benzyl-5-(3,4-dihydroxybenzylidene)-2-thioxothiazolidin-4-one]
B16F10 cells [2]
  cytotoxicity to B16F10 cells: cytotoxic at all tested concentrations
[5]
  % ABTS^•+ scavenging: 99%
[1]
  % DPPH radical-scavenging: 95%
[6]
  ROS-scavenging activity (SIN-1-induced ROS levels): greater ROS-scavenging potency than Trolox

## O=C1/C(=C/c2ccc(O)cc2O)SC(=S)N1Cc1ccccc1 [Compound 3, (Z)-3-Benzyl-5-(2,4-dihydroxybenzylidene)-2-thioxothiazolidin-4-one]
B16F10 cells [2]
  cytotoxicity to B16F10 cells: not cytotoxic; also recorded: no perceptible cytotoxicity
B16F10 cells [3]; 10 μM, α-MSH + IBMX
  inhibition of melanin production compared with kojic acid at the same concentration: significantly more potently than kojic acid
B16F10 cells [3]; α-MSH + IBMX
  effect on stimulator-induced increase in melanin contents: significantly decreased
B16F10 cells [3]; analog at 2 μM, α-MSH + IBMX
  melanin content compared with 10 μM kojic acid: more weakly than 10 μM kojic acid
[4]
  inhibition of cellular tyrosinase activity compared with kojic acid: more strongly than kojic acid
  effect on stimulator-enhanced cellular tyrosinase activity: significantly decreased
B16F10 cell tyrosinase
  relative dark area of cells compared with kojic acid at the same concentration: significantly less than that of kojic acid
  number of cells strongly stained with melanin: reduced the number of strongly stained cells in a concentration-dependent manner
[5]
  % ABTS^•+ scavenging: 98%
[6]
  ROS-scavenging activity (SIN-1-induced ROS levels): equipotent to that of Trolox
HaCaT cells
  cytotoxicity to HaCaT cells: no perceptible cytotoxicity

## COc1ccc(/C=C2\SC(=S)N(Cc3ccccc3)C2=O)cc1O [Compound 5, (Z)-3-Benzyl-5-(3-hydroxy-4-methoxybenzylidene)-2-thioxothiazolidin-4-one]
[5]
  % ABTS^•+ scavenging: 71%
[1]
  % DPPH radical-scavenging: 17%

## Cc1c(C)c2c(c(C)c1O)CCC(C)(C(=O)O)O2 (centres unmarked) [Trolox, reference compound]
[5]
  % ABTS^•+ scavenging: 99%
[6]
  ROS-scavenging activity (SIN-1-induced ROS levels): significantly reduced
